Data from patent US4921871A, “Enolamides, pharmaceutical compositions and methods of use thereof for treating inflammation” (Warner-Lambert Company, priority 1987, dated 1990).
Where “and” joins values, the source holds several entries; their conditions need not be identical. Identical values can stand only once.

What was measured:
leukotriene receptor = molecular target: T1, leukotriene receptor (Cavia porcellus, UniProt Q2NNR5); assay: Binding of 3H-Leukotriene D4 to Guinea Pig Lung Membranes (RBL)
T1 construct: Two pairs of lungs (1.3 g) from freshly sacrificed 300 g male guinea pigs; tissue Kuiper Rabbit Farm, Gary, Ind; (animals); host or cells: guinea pig lung, crude membranes
T1 sequence (Q2NNR5 1-340): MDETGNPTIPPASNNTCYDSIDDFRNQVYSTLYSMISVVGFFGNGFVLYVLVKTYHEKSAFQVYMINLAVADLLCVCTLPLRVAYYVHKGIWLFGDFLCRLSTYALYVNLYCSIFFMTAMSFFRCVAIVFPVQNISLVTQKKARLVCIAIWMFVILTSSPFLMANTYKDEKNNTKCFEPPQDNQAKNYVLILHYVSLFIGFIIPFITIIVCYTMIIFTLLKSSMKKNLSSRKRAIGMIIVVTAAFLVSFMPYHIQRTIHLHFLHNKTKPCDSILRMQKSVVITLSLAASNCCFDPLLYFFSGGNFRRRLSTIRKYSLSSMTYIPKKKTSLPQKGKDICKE
Experimental: Additionally, the activity, of the compounds having the Formula I of the present invention is determined by the well known leukotriene receptor binding assay that is described by R. F. Bruns, W. J. Thomsen and T. A. Pugsley in Life Sciences, 33, 645 (1983) or the Herxheimer in vivo antiallergy test described in H. Herxheimer, J. Physiol. (London), Vol. 177, p. 251 (1952).
[14,15-^3 H]leukotriene D4 (^3 H-LTD4) (25 Ci/mmol and 40 Ci/mmol) is purchased from New England Nuclear. Unlabeled LTC4 is a gift of Ono Pharmaceuticals (Japan). LTC4, LTD4, and LTE4 are purchased as methyl esters from Paesel GmbH (Frankfurt, W. Germany). Concentrations of the Paesel leukotrienes are calculated from their absorbance at 280 nm. Leukotriene esters are saponified overnight under N2 in 3.3% potassium carbonate at room temperature. Tritiated leukotrienes are stored as received from New England Nuclear at -20° C. Ono LTC4 (5 μg/ml) is stored at -60° C. in phosphate buffer pH - 6.8. Saponified Paesel leukotrienes are stored at -60° C. in 3.3% potassium carbonate (pH 9.0-9.5). Aliquots of leukotrienes are taken from stock solutions immediately after thawing, after which the stock solutions are immediately refrozen. 2-Amino-2-(hydroxymethyl)-1,3-propanediol (Tris) is Sigma pH 7.7 pre-set crystals, and dimethylsulfoxide is Aldrich Gold Label. Preparation of crude lung membranes
Two pairs of lungs (1.3 g) from freshly sacrificed 300 g male guinea pigs (older animals gave substantially lower binding) from Kuiper Rabbit Farm, Gary, Ind. are disrupted with a Polytron PT 10 (setting 4) for 30 seconds in 20 ml ice-cold 50 mM Tris adjusted with HCl to pH 7.7 at 25° C. (Tris buffer), filtered through a single layer of gauze to remove connective tissue, and centrifuged at 50,000 xg for ten min. The pellet is resuspended by homogenization with a Polytron in 20 ml Tris buffer, centrifuged at 50,000 xg for ten min., resuspended, incubated at 37° C. for 30 minutes, and centrifuged again. The final pellet is resuspended in Tris buffer and either used fresh or stored at -70° C.
All incubations are in triplicate for 60 minutes at 25° C. in 12×75 mm polystyrene tubes containing 1 ml Tris buffer with 20 mg original tissue wet weight of guinea pig lung membranes, 0.2 nM ^3 H-LTD4 (6,000-11,000 cpm), 10 mM MgCl2, and 1% dimethylsulfoxide. Leukotrienes are diluted in Tris buffer. All other test compounds dissolved at 10 mM in dimethylsulfoxide on the same day as the experiment, and diluted in dimethylsulfoxide to 100× the final incubation concentration. Control incubations receive an equal volume (10 μl) of dimethylsulfoxide; the resulting concentration of dimethylsulfoxide had no effect on binding. ^3 H-LTD4 is diluted to 2 nM in Tris buffer. The membrane suspension (20 mg/0.89 ml) contains sufficient MgCl2 to give 10 mM final concentration in the incubation. […] All additions are performed at 0° C. Immediately after the last addition, the incubation is initiated by agitating the rack of tubes on a vortex mixer and warming to 25° C. in a water bath. Tubes are vortexed at least once more during the incubation to ensure that the membranes remained suspended. Incubations are terminated after 60 minutes by filtering under reduced pressure through 25 mm Whatman GF/B filters followed by rapid washing three times with 4 ml of ice-cold Tris buffer. Filters are added to scintillation vials with 8 ml Formula 947 (New England Nuclear), left overnight, shaken, and the radioactivity counted in a scintillation counter (efficiency 40%). Nonspecific binding, defined as binding of ^3 H-LTD4 in the presence of 100 nM LTC4, is 300-500 cpm for all lots of ^3 H-LTD4. Binding to the filters in the absence of tissue is about 100 cpm, and is not affected by unlabeled LTC4. Specific binding, defined as total binding minus nonspecific binding, varied considerably from lot to lot of ^3 H-LTD4. […]

[1] = test system: Human Leukocyte Lipoxygenase; assay: Human Leukocyte Lipoxygenase Assay (LDA-H); type: biochemical
Experimental: Whole blood is collected from normal volunteers and spun in a refrigerated centrifuge for four minutes at 1°-6° C. at 3800 g. The buffy coat is manually separated and washed twice with chilled 0.83% NH4 Cl and centrifuged at 1000 RPM for ten minutes at 4° C. The white cell is suspended in culture media-EMEM supplemented with 6% Agamma human serum, tricine buffer, and neomycin and recentrifuged at 1000 g to yield a pellet containing the leukocytes used for the preparation of the acetone pentane powder.
The acetone-pentane powder is prepared utilizing a modification of the procedure reported for human platelet lipoxygenase. See Siegel, et al, Arachidonate Metabolism via Lipoxygenase and 12-L-hydro-peroxy-5 Eicosatetraenoic Acid Peroxidase Sensitive to Antiinflammatory Drugs, Proc. Natl. Acad. Sci., U.S.A. 77:308, 1980 and D. P. Wallach and V. R. Brown, A Novel Preparation of Human Platlet Lipoxygenase, Biochem. Biophys. Acta. 663:361, 1981. Buffy coat prepared above is resuspended in 5-7 volumes of cold 0.1M Tris buffer, pH 7.4 containing 0.154M NaCl. The suspension is centrifuged at 13,300 g for ten minutes at 4° C. The resultant pellet is retained, resuspended in five volumes of cold acetone, recentrifuged at 13,300 g and resuspended in five volumes of cold pentane. The pentane suspension is centrifuged for ten minutes at 13,300 g to give a pellet which is dried in the cold under vacuum with periodic pulverization. The dry powder is stable for several weeks when stored at -80° C.
Enzyme stock solution is prepared in the following manner. About 15 mg of the acetone-pentane powder is suspended in 4 ml of cold tris buffer (0.1M, pH 7.4), allowed to stand for five minutes, and homogenized thoroughly. The homogenate is sonicated three times for 15 seconds each time, diluted to 7 ml with cold tris buffer (0.1M, pH 7.4), and centrifuged at 4° C. for 60 minutes at 13,300 g. The supernatent is retained and diluted to a total of 10 ml with cold tris buffer (0.1M, pH 7.4) to give the stock enzyme solution. Additional dilutions of 2-50 fold are done as necessary to locate optimal enzyme reaction rate in the assay described below.
Substrate solution is prepared at 100 μM or 1.0 μM concentrations of arachidonic acid or linoleic acid in 0.1M tris buffer, pH 9.0 containing 20% ethanol.
The enzyme reaction is followed spectrophotometrically by the appearance of a conjugated diene product at 234 nm. The reaction is monitored at 24° C. using a Gilford Model 2600 spectrophotometer. […] The effects of inhibitors on the reaction are compared with control reactions run under indentical conditions. Routinely, each compounds of the present invention is incubated with the enzyme for five minutes prior to addition of substrate to initiate the reaction. Inhibition expressed as IC50 as molar concentration of the compound required to reduce reaction rate to 50% control.

O=C(O)c1ccc(CCc2ccc(NC(=O)C3CS(=O)(=O)c4ccccc4C3=O)cc2)cc1 (stereo not shown) [Example 12, 4-[2-[4-[[(3,4-Dihydro-4-oxo-2H-1-benzothiopyran-3-yl)carbonyl]amino]phenyl]ethyl]benzoic acid, 1,1-dioxide]
RBL, % Inhibition (leukotriene receptor; 1.00 E -4 M): 0.0%

O=C(Nc1ccc(CCc2cc(O)c(O)c(O)c2)cc1)C1=C(O)c2ccccc2S(=O)(=O)C1 [Example 36]
LDAH, % Inhibition ([1]; 2.50 E -5 M): 0.0% | RBL, % Inhibition (leukotriene receptor; 1.00 E -4 M): 78.0% and 81.0% | RBL, % Inhibition (leukotriene receptor; 1.00 E -5 M): 7.0% | RBL, % Inhibition (leukotriene receptor; 2.00 E -5 M): 27.0% | RBL, % Inhibition (leukotriene receptor; 2.00 E -6 M): 6.0% | RBL, % Inhibition (leukotriene receptor; 3.15 E -5 M): 80.0% | RBL, % Inhibition (leukotriene receptor; 5.00 E -5 M): 59.0% | RBL, % Inhibition (leukotriene receptor; 5.00 E -6 M): 3.0%

O=C(Nc1ccc(CCc2ccccc2O)cc1)C1=C(O)c2ccccc2S(=O)(=O)C1 [Example 38]
LDAH, % Inhibition ([1]; 2.50 E -5 M): 0.0% | LDAH, % Inhibition ([1]; 8.00 E -5 M): 0.0% | IC50 (leukotriene receptor; 0.2 nM 3H-LTD4, guinea pig lung membranes, 60 min, 25 °C, read-out: RBL, concentration for 50% inhibition (IC)): 26.5 µM

CN(C)c1ccc(CCc2ccc(NC(=O)C3CS(=O)(=O)c4ccccc4C3=O)cc2)cc1 (stereo not shown) [Example 55]
RBL, % Inhibition (leukotriene receptor; 1.00 E -5 M): 6.0% | RBL, % Inhibition (leukotriene receptor; 1.00 E -6 M): 5.0% | RBL, % Inhibition (leukotriene receptor; 2.00 E -5 M): 12.0% | RBL, % Inhibition (leukotriene receptor; 2.00 E -6 M): 10.0% | RBL, % Inhibition (leukotriene receptor; 5.00 E -5 M): 11.0% | RBL, % Inhibition (leukotriene receptor; 5.00 E -6 M): 13.0%

CCCCCCCCCCc1ccc(NC(=O)C(=O)c2sc3ccc(Cl)cc3c2O)cc1 [Example 135, Benzo[b]thiophene-2-acetamide, 5-chloro-N-(4-decylphenyl)-3-hydroxy-α-oxo]
RBL, % Inhibition (leukotriene receptor; 1.00 E -4 M): 43.0%

O=C(Nc1ccc(CCc2ccc(Cl)cc2)cc1)C(=O)c1sc2ccccc2c1O [Example 137, Benzo[b]thiophene-2-acetamide, N-[4-[2-(4-chlorophenyl)ethyl]phenyl]-3-hydroxy-α-oxo]
RBL, % Inhibition (leukotriene receptor; 1.00 E -4 M): 12.0%

COc1ccc(CCc2ccc(NC(=O)C(=O)c3sc4ccc(Cl)cc4c3O)cc2)cc1OC [Example 139, Benzo[b]thiophene-2-acetamide, 5-chloro-N-[4-[2-(3,4-dimethox-yphenyl)ethyl]phenyl]-3-hydroxy-α-oxo]
RBL, % Inhibition (leukotriene receptor; 1.00 E -4 M): 25.0%

O=C(Nc1ccc(CCc2ccc(Cl)cc2)cc1)c1sc2ccccc2c1O [Example 145, Benzo[b]thiophene-2-carboxamide, N-[4-[2-(4-chlorophenyl)ethyl]phenyl]-3-hydroxy]
RBL, % Inhibition (leukotriene receptor; 1.00 E -4 M): 30.0%
